The source of these data is patent US20150004134A1, “TREATMENT OF CANCER WITH HETEROCYCLIC INHIBITORS OF GLUTAMINASE” (Calithera Biosciences, Inc., priority 2012, published 2015).

Where two headings read alike, the source gives them in different places.

Series [1] relates to P493-6 (myc "on") cells. In words: Cell Proliferation Assay. Type of series: cell-based. The settings on record: P493-6, 72 h. The gist of the method: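 Read-out: either Cell Titer Glo or Guava Viacount flow analysis after 72 h compound treatment of myc-on P493-6 cells (10,000/well, RPMI with 10% FBS) at 37 °C. DMSO held at 0.5% final.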
For series [2], the target named is T1, recombinant form of Glutaminase 1 (GAC) (Homo sapiens, UniProt O94925).
T1 sequence (O94925 137-598 isoform O94925-3 limits assumed): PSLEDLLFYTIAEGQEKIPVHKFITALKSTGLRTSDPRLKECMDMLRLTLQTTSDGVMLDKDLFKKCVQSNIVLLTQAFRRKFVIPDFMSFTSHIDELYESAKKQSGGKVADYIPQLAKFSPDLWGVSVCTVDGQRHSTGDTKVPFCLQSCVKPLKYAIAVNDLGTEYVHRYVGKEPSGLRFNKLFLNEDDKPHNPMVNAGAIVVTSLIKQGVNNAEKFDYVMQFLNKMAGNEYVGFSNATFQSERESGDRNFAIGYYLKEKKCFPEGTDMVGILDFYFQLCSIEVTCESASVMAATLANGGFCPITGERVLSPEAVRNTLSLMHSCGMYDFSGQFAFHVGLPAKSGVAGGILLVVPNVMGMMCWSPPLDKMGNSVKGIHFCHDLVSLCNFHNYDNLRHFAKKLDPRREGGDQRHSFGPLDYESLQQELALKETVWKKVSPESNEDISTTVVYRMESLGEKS
Nature of the series: Recombinant Enzyme Assay - Time Dependence (60 min preincubation). The settings on record: read-out: GAC Delta N2 IC50 60 min preinc. Type of series: biochemical. In short, it runs like this:
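Enzyme and compound preincubated 60 min at 20° C; reaction started with substrate buffer (50 mM Tris-HCl pH 8.0, 150 mM K2HPO4, 1 mM DTT, 20 mM L-glutamine, 2 mM NAD^+). NADH formation followed at 340 nm in kinetic mode for 15 min at 20° C; slopes (mAU/min) compared with DMSO and control-compound wells.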

In series [3] the target is T1, recombinant form of Glutaminase 1 (GAC). In words: Recombinant Enzyme Assay (no preincubation).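 Note: GDH-coupled GAC activity read as absorbance at 340 nm in kinetic mode over 15 min at 20 °C, slopes compared with a DMSO-only control, lower slope means inhibition.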 The following applies: read-out: GAC Delta N2 IC50 no preinc. The class given is biochemical.
Protocol: Compounds were assessed for their ability to inhibit the enzymatic activity of a recombinant form of Glutaminase 1 (GAC) using a biochemical assay that couples the production of glutamate (liberated by GAC) to glutamate dehydrogenase (GDH) and measuring the change in absorbance for the reduction of NAD^+ to NADH. […] Enzymatic reaction was started with the addition of 50 μL of enzyme solution (50 mM Tris-HCl pH 8.0, 0.2 mM EDTA, 150 mM K2HPO4, 0.1 mg/ml BSA, 1 mM DTT, 10 ppm antifoam, 4 units/ml GDH, 4 mM adenosine diphosphate, and 4 nM GAC) and read in a Molecular Devices M5 plate reader at 20° C. The plate reader was configured to read absorbance (λ=340 nm) in kinetic mode for 15 minutes. Data was recorded as milli-absorbance units per minute and slopes were compared to a control compound and a DMSO-only control on the same plate. Compounds with slopes less than the DMSO control were considered inhibitors and plate variability was assessed using the control compound.
Series [4] deals with Caco-2 cell monolayers. Nature of the series: Caco-2 Permeability Assay. Type of series: in vitro ADME. The settings on record: for Permeability Classification: absorption potential. From the text: Caco-2 cells are commonly used in a confluent monolayer on a cell culture insert filter. When cultured in this format and under specific conditions, the cells become differentiated and polarized such that their phenotype, morphologically and functionally resembles the enterocytes lining the small intestine. The cell monolayer provides a physical and biochemical barrier to the passage of small molecules, and is widely used across the pharmaceutical industry as an in vitro model of the human small intestinal mucosa to predict the absorption of orally administered drugs (Hidalgo et al., Gastroenterology, 1989; Artursson, J. Pharm. Sci., 1990). The correlation between the in vitro apparent permeability (P ? app) across Caco-2 monolayers and the in vivo absorption is well established (Artursson et al., Biochem. Biophys. Res. Comm., 1991).
The present assay was used to determine the bidirectional permeability of the compounds of the invention through Caco-2 cell monolayers. Caco-2 cells were grown in confluent monolayers where the media of both the apical (A) and basolateral (B) sides were at pH 7.4. Compounds were dosed at 1 μM in the presence of 200 μM Lucifer Yellow, on the apical side (A→B) or the basolateral side (B→A) for assessment, in duplicate.
The absorption potential of compounds were classified as either Low (P-app <1×10^−6 CM/S) or High (P-app >1×10^−6 CM/S).
A general note: Caco-2 monolayers are a common model of the intestinal barrier.

The mark [5] stands for this setting: read-out: Cell prolif P493 72 h IC50, P493 cells, 72 h.
Where [6] appears, read: read-out: Cell prolif P493 72 h IC50, P493-6 cells, 72 h.

As for `O=C(Nc1nnc(CCCCc2nnc(NC(=O)C(CO)c3ccccc3)s2)s1)C(CO)c1ccccc1` (stereo not shown) [Compound 36, N,N′-[5,5′-(butane-1,4-diyl)-bis(1,3,4-thiadiazole-5,2-diyl)]-bis(3-hydroxy-2-phenylpropanamide)], the IC50 in series [1] (setting [5]) was 160 nM; in series [2], 40 nM; in series [3], 220 nM.
The like results for `NCc1cccc(CC(=O)Nc2nnc(CCCCc3nnc(NC(=O)Cc4cccc(CN)c4)s3)s2)c1` [Compound 325] were, in that order, 30 nM, 170 nM and 660 nM.
For the molecule `O=C(Cc1ccccc1)Nc1ccc(CCCCc2nnc(NC(=O)Cc3cccc(O)c3)s2)nn1` [Compound 337], the IC50 in series [1] (setting [5]) is 21 nM; in series [3] it was 73 nM.
The like results for `O=C(Cc1ccccc1)Nc1ccc(CCCCc2nnc(NC(=O)Cc3cccc(OCc4ccccc4)c3)s2)nn1` [Compound 338] were, in that order, 43 nM and 150 nM.
In the same order, the values of `O=C(Cc1ccccc1)Nc1ccc(CCCCc2nnc(NC(=O)[C@H](O)c3cccc(Cl)c3)s2)nn1` [Compound 340] are 38 nM and 96 nM.
Take `O=C(Cc1ccccc1)Nc1ccc(CCCCc2nnc(NC(=O)C(O)c3cc(F)cc(F)c3)s2)nn1` (stereo not shown) [Compound 351]: the IC50 was found to be 49 nM in series [1] (setting [5]) and 110 nM in series [3].
The like results for `COc1cccc(CC(=O)Nc2nnc(CCCCc3ccc(NC(=O)Cc4ccccc4)nn3)s2)c1` [Compound 353] were, in that order, 21 nM and 49 nM.
In the case of `O=C(Cc1ccccc1)Nc1ccc(CCCCc2nnc(NC(=O)Cc3cccnc3)s2)nn1` [Compound 355], the IC50 in series [1] (setting [5]) turned out to be 39 nM; in series [3], 100 nM.
With `COc1cccc(CC(=O)Nc2nnc(CCSCCc3nnc(NC(=O)Cc4ccccn4)s3)s2)c1` [Compound 360], the figures for the IC50 in series [1] (setting [5]) and in series [3] were 670 nM and 280 nM, respectively.
`O=C(Cc1ccccc1)Nc1nnc(CCCCc2ccc(NC(=O)C(O)c3ccccc3)nn2)s1` (stereo not shown) [Compound 364]: the IC50 in series [1] (setting [5]) turned out to be 260 nM; in series [2], 30 nM; in series [3], 150 nM.
With `O=C(Cc1ccccc1)Nc1nnc(CCCCc2ccc(NC(=O)C(O)c3cccc(Cl)c3)nn2)s1` (stereo not shown) [Compound 365], the values for the IC50 in series [1] (setting [5]), in series [2] and in series [3] were 89 nM, 9 nM and 92 nM, respectively.
As to `COc1cccc(CC(=O)Nc2ccc(CCCCc3nnc(NC(=O)Cc4ccccc4)s3)nn2)c1` [Compound 366], the IC50 in series [1] (setting [5]) was 24 nM; in series [3], 74 nM.
With `NCc1cccc(CC(=O)Nc2ccc(CCCCc3nnc(NC(=O)Cc4ccccc4)s3)nn2)c1` [Compound 368], the IC50 is 17 nM in series [1] (setting [5]), 9 nM in series [2] and 110 nM in series [3].
As to `CC(C)(C)OC(=O)NCc1cccc(CC(=O)Nc2nnc(CCCCc3nnc(NC(=O)Cc4ccccc4)s3)s2)c1` [Compound 375], the results for the IC50 in series [1] (setting [5]), in series [2] and in series [3] were 41 nM, 5 nM and 380 nM, respectively.
Turning to `O=C(Cc1ccccc1)Nc1ccc(CCCCc2nnc(NC(=O)Cc3cccc(-n4ccnc4)c3)s2)nn1` [Compound 379], the IC50 in series [1] (setting [5]) was 38 nM; in series [3], 97 nM.
In the same order, the values of `Cc1nccn1Cc1cccc(CC(=O)Nc2nnc(CCCCc3ccc(NC(=O)Cc4ccccc4)nn3)s2)c1` [Compound 380] are 19 nM and 120 nM.
The like results for `O=C(Cc1ccccc1)Nc1ccc(CCCCc2nnc(NC(=O)Cc3cccc(OCCN4CCOCC4)c3)s2)nn1` [Compound 381] were, in that order, 18 nM and 160 nM.
Consider `CCOC(=O)NCc1cccc(CC(=O)Nc2nnc(CCCCc3ccc(NC(=O)Cc4ccccc4)nn3)s2)c1` [Compound 382], for which the IC50 in series [1] (setting [5]) came out at 7 nM; in series [2] it was 3 nM; in series [3], 99 nM.
With `O=C(Cc1ccccn1)Nc1ccc(CCCCc2nnc(NC(=O)Cc3ccccc3)s2)nn1` [Compound 383], the IC50 in series [1] (setting [5]) amounted to 22 nM; in series [3], 86 nM.
For the molecule `CCOC(=O)NCc1cccc(CC(=O)Nc2ccc(CCCCc3nnc(NC(=O)Cc4ccccc4)s3)nn2)c1` [Compound 384], the IC50 amounted to 5 nM in series [1] (setting [5]), 3 nM in series [2] and 81 nM in series [3].
As for `Nc1ccc(CCCCc2nnc(NC(=O)Cc3cccc(OCc4ccccc4)c3)s2)nn1` [Compound 385], the IC50 in series [1] (setting [5]) was determined as 720 nM; in series [3], 260 nM.
The like results for `O=C(Cc1ccccc1)Nc1ccc(CCCCc2nnc(NC(=O)OCc3ccccc3)s2)nn1` [Compound 386] were, in that order, 150 nM and 85 nM.
On to `CC(C(=O)Nc1ccc(CCCCc2nnc(NC(=O)Cc3cccc(CNC(=O)OC(C)(C)C)c3)s2)nn1)c1ccccc1` (stereo not shown) [Compound 436], for which, in series [4], the “Significant Efflux” value is reported as “Yes (efflux ratios being significant when greater than or equal to 3 when the Papp (B→A) was greater than or equal to 1×10^−6 cm/s)” and the “Permeability Classification” value was “High (High (P-app >1×10^−6 CM/S))”.
For the molecule `O=C(Cc1ccccc1Cl)Nc1ccc(CCCCc2nnc(NC(=O)Cc3ccccc3F)s2)nn1` [Compound 533], in series [4], the “Significant Efflux” value is “Yes (efflux ratios being significant when greater than or equal to 3 when the Papp (B→A) was greater than or equal to 1×10^−6 cm/s)” and the “Permeability Classification” value is recorded as “High (High (P-app >1×10^−6 CM/S))”.
Take `O=C(Cc1cccc2cnccc12)Nc1nnc(CCCCc2nnc(NC(=O)Cc3cccc4cnccc34)s2)s1` [Compound 639]: the IC50 was 23000 nM in series [1] (setting [6]) and 170 nM in series [3].
In the same order, the values of `O=C(Cc1cccc2[nH]ncc12)Nc1nnc(CCCCc2nnc(NC(=O)Cc3cccc4[nH]ncc34)s2)s1` [Compound 640] are 70 nM and 120 nM.
The like results for `O=C(Cc1cccc2ncccc12)Nc1nnc(CCCCc2nnc(NC(=O)Cc3cccc4ncccc34)s2)s1` [Compound 641] were, in that order, 500 nM and 140 nM.
In the case of `O=C(Cc1cccc(OC(F)(F)F)c1)Nc1ccc(CCCCc2nnc(NC(=O)Cc3ccccn3)s2)nn1` [Compound 670], in series [4], the “Significant Efflux” value is “Yes (efflux ratios being significant when greater than or equal to 3 when the Papp (B→A) was greater than or equal to 1×10^−6 cm/s)” and the “Permeability Classification” value was “High (High (P-app >1×10^−6 CM/S))”.
In the same order, the values of `O=C(Cc1cccc(OC(F)(F)F)c1)Nc1ccc(CCCCc2nnc(NC(=O)Cc3cccc(F)c3)s2)nn1` [Compound 679] are “No” and “High (High (P-app >1×10^−6 CM/S))”.
With `O=C(Cc1cccc(OC(F)(F)F)c1)Nc1ccc(CCCCc2nnc(NC(=O)[C@@H](O)c3ccccc3)s2)nn1` [Compound 703], in series [4], the “Significant Efflux” value is given as “Yes (efflux ratios being significant when greater than or equal to 3 when the Papp (B→A) was greater than or equal to 1×10^−6 cm/s)” and the “Permeability Classification” value is on record as “High (High (P-app >1×10^−6 CM/S))”.
On to `O=C(Cc1cccc(OC(F)(F)F)c1)Nc1ccc(CCCCc2nnc(NC(=O)[C@H](O)c3ccccc3)s2)nn1` [Compound 705], for which, in series [4], the “Significant Efflux” value is recorded as “Yes (efflux ratios being significant when greater than or equal to 3 when the Papp (B→A) was greater than or equal to 1×10^−6 cm/s)” and the “Permeability Classification” value was “High (High (P-app >1×10^−6 CM/S))”.
